The test system of assay [1] is mouse lupus disease models. As to the kind of experiment: SLE disease models, summary of findings. It is filed as in vivo. As to conditions: summary over lupus models. Here is the method: Male BXSB-Yaa and female NZBWF1/J mice were purchased from Jackson Labs (Bar Harbor, Me.), both of which manifest with spontaneous lupus disease. Female DBA/1 mice were purchased from Harlan Laboratories (Indianapolis, Ind.) and at the indicated ages given an intraperitoneal injection of 0.5 ml pristane (2,6,10,14-Tetramethylpentadecane; Sigma, St. Louis, Mo.) to chemically induce lupus disease or of 0.5 ml PBS to generate age-matched, non-diseased control mice. Mice were dosed daily by oral administration of compound or drug in 0.5% methylcellulose, for the time period indicated.

The target of assay [2] is T1, Mouse TLR7 (Mus musculus, UniProt P58681).
T1 construct: endogenous in cells; host or cells: female BALB/c mice, in vivo
T1 sequence (P58681 27-1050): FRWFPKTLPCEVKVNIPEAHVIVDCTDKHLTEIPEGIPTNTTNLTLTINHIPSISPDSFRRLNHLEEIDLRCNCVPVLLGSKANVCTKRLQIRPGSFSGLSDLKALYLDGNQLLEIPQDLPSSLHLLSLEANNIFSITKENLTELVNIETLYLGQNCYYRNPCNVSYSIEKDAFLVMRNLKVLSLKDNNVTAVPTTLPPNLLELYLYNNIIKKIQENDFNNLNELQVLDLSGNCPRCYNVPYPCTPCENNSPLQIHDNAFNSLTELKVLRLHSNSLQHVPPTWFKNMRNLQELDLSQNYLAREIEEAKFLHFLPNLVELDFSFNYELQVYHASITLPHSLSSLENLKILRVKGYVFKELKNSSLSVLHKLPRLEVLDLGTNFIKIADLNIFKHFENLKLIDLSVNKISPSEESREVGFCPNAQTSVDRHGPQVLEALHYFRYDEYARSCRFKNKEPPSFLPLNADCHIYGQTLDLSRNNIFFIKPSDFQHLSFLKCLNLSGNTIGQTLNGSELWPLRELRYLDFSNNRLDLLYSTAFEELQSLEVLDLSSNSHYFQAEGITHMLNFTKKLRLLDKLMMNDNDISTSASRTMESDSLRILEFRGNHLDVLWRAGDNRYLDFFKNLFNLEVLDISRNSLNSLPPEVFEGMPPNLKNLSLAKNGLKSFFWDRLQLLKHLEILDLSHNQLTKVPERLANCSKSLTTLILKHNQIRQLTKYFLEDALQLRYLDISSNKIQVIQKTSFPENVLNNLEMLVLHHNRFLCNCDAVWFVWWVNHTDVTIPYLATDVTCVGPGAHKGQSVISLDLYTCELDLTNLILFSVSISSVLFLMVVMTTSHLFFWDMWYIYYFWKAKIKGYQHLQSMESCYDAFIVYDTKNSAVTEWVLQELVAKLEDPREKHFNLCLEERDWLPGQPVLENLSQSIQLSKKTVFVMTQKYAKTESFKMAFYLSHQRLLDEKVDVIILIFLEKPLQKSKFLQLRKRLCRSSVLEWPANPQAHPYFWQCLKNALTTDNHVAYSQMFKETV
The assay is described as follows: Short-term in vivo (STIV) assay: plasma IL-6 after s.c. R848. Here is the method: Figure Legend: Female BALB/c mice were dosed by oral gavage with Vehicle alone (0.5% aqueous methyl-cellulose) or compound ER-892887 formulated in Vehicle at 100 mg/kg or 300 mg/kg. At 13 or 24 hours following oral dosing, mice were injected subcutaneously with 15 ug R848 to stimulate TLR7. Blood plasma was collected by cardiac puncture, and the IL-6 level at 1.5 hours after TLR7 stimulation was then assessed by standard ELISA procedure. Percent suppression indicated is relative to IL-6 induction following Vehicle control dosing. Statistical significance was determined by Mann-Whitney test.
To assess compound potency in vivo against mouse TLR7, a short-term in vivo (STIV) assay was utilized. Briefly, mice were orally dosed with compounds and at various time points afterwards were injected subcutaneously with agonist R848 to stimulate TLR7. The plasma IL-6 level following R848 stimulation was then measured by ELISA to assess compound potency and duration-of-action. […] Therefore, the activity of compounds in the STIV assay can be confidently attributed to their modulation of the TLR7 pathway. A single oral dose of ER-892887 at 300 mg/kg suppresses the R848/TLR7/IL-6 pathway in vivo by 80-90% for at least 24 hours (see FIG. 1).
Six to eight week old female BALB/c mice (Jackson Labs, Bar Harbor, Me.) were dosed by oral gavage in 200 ul volume with antagonist compounds formulated in 0.5% aqueous methyl-cellulose (Sigma, St. Louis, Mo.). At various time points afterwards, mice were injected subcutaneously (s.c.) in 100 ul volume with 15 ug R848 (Resiquimod; GLSynthesis, Worcester, Mass.) to stimulate TLR7. Blood plasma was collected by cardiac puncture, and levels of IL-6 at 1.5 hours after TLR7 stimulation were then assessed by standard ELISA procedure according to the manufacturer's recommended protocol (R&D Systems).

[3] abbreviates: time point 6 hr, dose 33 mg/kg oral.
[4] abbreviates: time point 6 hr, dose 100 mg/kg oral.
The mark [5] stands for this setting: time point 13 hr, dose 33 mg/kg oral.
Where [6] appears, read: time point 13 hr, dose 100 mg/kg oral.

On to `COc1ccc([C@@H]2C[C@H](C(F)(F)F)n3nc(-c4ccc(C(=O)N5CCNCC5)cc4)cc3N2)cc1OC` [ER-892887, (4-((5S,7R)-5-(3,4-dimethoxyphenyl)-7-(trifluoromethyl)-4,5,6,7-tetrahydropyrazolo[1,5-a]pyrimidin-2-yl)phenyl)(piperazin-1-yl)methanone], for which, in assay [1], the “kidney disease as manifested by proteinuria and histologic changes” value was “suppressed”. Also, the “production of several autoantibody specificities” value in assay [1] is on record as “limited”. Further, the “suppression of the R848/TLR7/IL-6 pathway in vivo” value in assay [2] (single oral dose 300 mg/kg) was 80-90%. In assay [2] (single oral dose 300 mg/kg, 80-90% suppression), the “duration of suppression of the R848/TLR7/IL-6 pathway in vivo” value is “at least 24 hours”. Moreover, the “% Suppression vs. Vehicle” value in assay [2] (setting [3]) was found to be 83%; in assay [2] (setting [4]), 100%; in assay [2] (time point 13 hr, dose 11 mg/kg oral), 27%; in assay [2] (setting [5]), 12%; in assay [2] (setting [6]), 49%; in assay [2] (time point 13 hr, dose 300 mg/kg oral), 90%. Besides, the “% Suppression vs. Vehicle” value in assay [2] (time point 24 hr, dose 33 mg/kg oral) is given as 0%; in assay [2] (time point 24 hr, dose 100 mg/kg oral), 12%; in assay [2] (time point 24 hr, dose 300 mg/kg oral), 86%.

On to `Cc1nn(C)cc1[C@@H]1C[C@H](C(F)(F)F)n2nc(-c3ccc(NC(N)=O)cc3)cc2N1` [ER-894595], for which the “% Suppression vs. Vehicle” value in assay [2] (setting [3]) is recorded as 0%; in assay [2] (setting [4]) it was 57%; in assay [2] (setting [5]) it was 0%; in assay [2] (setting [6]), 0%.

`COc1ccc([C@@H]2C[C@H](C(F)(F)F)n3nc(-c4ccncc4)cc3N2)cc1OC` [ER-885454]: in assay [1], the “kidney disease as manifested by proteinuria and histologic changes” value is given as “suppressed”; the “production of several autoantibody specificities” value is listed as “limited”. In assay [2] (time point 19 hr, dose 100 mg/kg oral), the “% Suppression vs. Vehicle” value came out at 56%. Also, the “% Suppression vs. Vehicle” value in assay [2] (time point 19 hr, dose 300 mg/kg oral) is listed as 100%.

The record behind these values is patent US9126999B2, “Tetrahydropyrazolopyrimidine compounds” (EISAI R&D MANAGEMENT CO., LTD., priority 2012, dated 2015).
